Laboratory results reported in PubChem BioAssay (NCI).
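Here, GI50 denotes the concentration required for 50% inhibition of growth. TGI is the concentration that stops growth completely.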

Columns and labels:
Experiment in all cases: DTP human tumour cell line panel, 384-well format
HCC-2998 colon = tested on: HCC-2998 colon
NCI-H23 lung = tested on: NCI-H23 lung
HL-60(TB) leukemia = tested on: HL-60(TB) leukemia
UO-31 renal = tested on: UO-31 renal
OVCAR-4 ovarian = tested on: OVCAR-4 ovarian
MCF7 breast = tested on: MCF7 breast
SK-MEL-28 melanoma = tested on: SK-MEL-28 melanoma
BT-549 breast = tested on: BT-549 breast
RXF 393 renal = tested on: RXF 393 renal
COLO 205 colon = tested on: COLO 205 colon
U251 glioblastoma = tested on: U251 glioblastoma
EKVX NSCLC = tested on: EKVX NSCLC
TK-10 renal = tested on: TK-10 renal
MALME-3M melanoma = tested on: MALME-3M melanoma
RPMI-8226 leukemia = tested on: RPMI-8226 leukemia
NCI-H522 lung = tested on: NCI-H522 lung
SK-OV-3 ovarian = tested on: SK-OV-3 ovarian
HCT-15 colon = tested on: HCT-15 colon
SW-620 colon = tested on: SW-620 colon
MDA-MB-435 melanoma = tested on: MDA-MB-435 melanoma
T-47D breast = tested on: T-47D breast
HOP-62 NSCLC = tested on: HOP-62 NSCLC
LOX IMVI melanoma = tested on: LOX IMVI melanoma
NCI-H226 lung = tested on: NCI-H226 lung
DU-145 prostate = tested on: DU-145 prostate
MDA-MB-231 breast = tested on: MDA-MB-231 breast
SK-MEL-5 melanoma = tested on: SK-MEL-5 melanoma
OVCAR-3 ovarian = tested on: OVCAR-3 ovarian
SNB-75 CNS = tested on: SNB-75 CNS

Question: `CCN1C(=O)CCCc2c1ccc(Nc1ncc(Cl)c(NC3[C@@H](C(N)=O)[C@@H]4C=C[C@H]3C4)n1)c2OC` (stereo partly drawn) was tested. Which GI50 (HCC-2998 colon) did it give?
Answer: 1680 nM

Question: And the TGI (HCC-2998 colon)?
Answer: 3070 nM

Question: And the GI50 (NCI-H23 lung)?
Answer: 430 nM

Question: What about the TGI (NCI-H23 lung) of the same molecule?
Answer: 1620 nM

Question: What about the GI50 (HL-60(TB) leukemia) of the same molecule?
Answer: 254 nM

Question: And the TGI (HL-60(TB) leukemia)?
Answer: 532 nM

Question: And the GI50 (UO-31 renal)?
Answer: 1630 nM

Question: What about the TGI (UO-31 renal) of the same molecule?
Answer: 14300 nM

Question: What about the GI50 (OVCAR-4 ovarian) of the same molecule?
Answer: 1100 nM

Question: And the TGI (OVCAR-4 ovarian)?
Answer: 2700 nM

Question: What about the GI50 (MCF7 breast) of the same molecule?
Answer: 562 nM

Question: What about the TGI (MCF7 breast) of the same molecule?
Answer: 2340 nM

Question: And the GI50 (SK-MEL-28 melanoma)?
Answer: 1080 nM

Question: What about the TGI (SK-MEL-28 melanoma) of the same molecule?
Answer: 2570 nM

Question: What about the GI50 (BT-549 breast) of the same molecule?
Answer: 509 nM

Question: What about the TGI (BT-549 breast) of the same molecule?
Answer: 1880 nM

Question: What about the GI50 (RXF 393 renal) of the same molecule?
Answer: 1620 nM

Question: And the TGI (RXF 393 renal)?
Answer: 3950 nM

Question: What about the GI50 (COLO 205 colon) of the same molecule?
Answer: 318 nM

Question: And the TGI (COLO 205 colon)?
Answer: 1190 nM

Question: And the GI50 (U251 glioblastoma)?
Answer: 632 nM

Question: What about the TGI (U251 glioblastoma) of the same molecule?
Answer: 10900 nM

Question: And the GI50 (EKVX NSCLC)?
Answer: 927 nM

Question: What about the TGI (EKVX NSCLC) of the same molecule?
Answer: 3260 nM

Question: And the GI50 (TK-10 renal)?
Answer: 1300 nM

Question: What about the TGI (TK-10 renal) of the same molecule?
Answer: 3750 nM

Question: What about the GI50 (MALME-3M melanoma) of the same molecule?
Answer: 517 nM

Question: And the TGI (MALME-3M melanoma)?
Answer: 1920 nM

Question: And the GI50 (RPMI-8226 leukemia)?
Answer: 226 nM

Question: And the TGI (RPMI-8226 leukemia)?
Answer: 501 nM

Question: What about the GI50 (NCI-H522 lung) of the same molecule?
Answer: 385 nM

Question: What about the TGI (NCI-H522 lung) of the same molecule?
Answer: 1310 nM

Question: What about the GI50 (SK-OV-3 ovarian) of the same molecule?
Answer: 1400 nM

Question: And the TGI (SK-OV-3 ovarian)?
Answer: 3250 nM

Question: And the GI50 (HCT-15 colon)?
Answer: 288 nM

Question: And the TGI (HCT-15 colon)?
Answer: 1210 nM

Question: What about the GI50 (SW-620 colon) of the same molecule?
Answer: 434 nM

Question: And the TGI (SW-620 colon)?
Answer: 1720 nM

Question: And the GI50 (MDA-MB-435 melanoma)?
Answer: 728 nM

Question: And the TGI (MDA-MB-435 melanoma)?
Answer: 3490 nM

Question: What about the GI50 (T-47D breast) of the same molecule?
Answer: 1070 nM

Question: And the TGI (T-47D breast)?
Answer: 4240 nM

Question: And the GI50 (HOP-62 NSCLC)?
Answer: 644 nM

Question: And the TGI (HOP-62 NSCLC)?
Answer: 2990 nM

Question: What about the GI50 (LOX IMVI melanoma) of the same molecule?
Answer: 334 nM

Question: What about the TGI (LOX IMVI melanoma) of the same molecule?
Answer: 1200 nM

Question: And the GI50 (NCI-H226 lung)?
Answer: 1130 nM

Question: And the TGI (NCI-H226 lung)?
Answer: 4420 nM

Question: What about the GI50 (DU-145 prostate) of the same molecule?
Answer: 577 nM

Question: And the TGI (DU-145 prostate)?
Answer: 2800 nM

Question: And the GI50 (MDA-MB-231 breast)?
Answer: 726 nM

Question: What about the TGI (MDA-MB-231 breast) of the same molecule?
Answer: 4400 nM

Question: What about the GI50 (SK-MEL-5 melanoma) of the same molecule?
Answer: 578 nM

Question: What about the TGI (SK-MEL-5 melanoma) of the same molecule?
Answer: 1950 nM

Question: And the GI50 (OVCAR-3 ovarian)?
Answer: 1020 nM

Question: What about the TGI (OVCAR-3 ovarian) of the same molecule?
Answer: 2770 nM

Question: What about the GI50 (SNB-75 CNS) of the same molecule?
Answer: 1100 nM

Question: And the TGI (SNB-75 CNS)?
Answer: 9580 nM
